In article PMC7707092, “Discovery and characterization of ORM‐11372, a novel inhibitor of the sodium‐calcium exchanger with positive inotropic activity” (British Journal of Pharmacology, 2020):
Entries after “also recorded” stand apart in the source; their conditions may differ.

How the values were obtained:
[1] = tested on: guinea pig papillary muscle; assay: In vitro contraction dynamics in guinea pig papillary muscle; settings: 1 Hz, 37°C
Excerpt: Guinea pigs (both sex, body weight ranging 342–565 g, Dunkin Hartley, M&B A/S, Ry, Denmark) were used in the study. The animals were housed in solid bottom polycarbonate cages (Makrolon® IV, 385 × 590 × 200 mm) with stainless steel wire mesh lids, up to three animals of same sex per cage. Autoclaved aspen chips (Tapvei Ky, Kaavi, Finland) were used as bedding. A commercially available rodent SDS FD1 (P) SQC pellet diet (Special Diet Services Ltd, Witham, England) and tap water from the public supply (Espoon vesilaitos, Espoo, Finland) were available ad libitum in polycarbonate bottles (800–1,000 ml) with plastic caps (Scanbur A/S, Ejby, Denmark).
Guinea pigs were killed by a blow on the skull and the heart will be excised. Right ventricular papillary muscle was dissected and rinsed in ice‐cold Tyrode's solution. […]
The signal was acquired with a validated acquisition system ACFO v1.0 (Fision Oy, Finland). The following parameters were measured: twitch tension (Tw), rest tension (RT), time to peak tension (TTP), and half relaxation time (HRT). […]
The baseline twitch tensions were measured after a stabilization period of 20–40 min. Thereafter, vehicle (1.1% DMSO) or ORM‐11372 in Tyrode's solution was superfused into the cuvette for 15 min, and the effects were measured from the steady‐state level. […]

[2] = tested on: human iPS cardiomyocyte action potentials; assay: Action potentials in spontaneously beating hiPSC cardiomyocytes (Cor.4U); type: cell-based; settings: 0.1 or 0.3 μM
Experimental: APs were recorded in spontaneously beating Cor.4U CMs in the current clamp using the perforated patch technique and voltage‐sensitive dye (di‐4‐ANEPPS), in a 96‐well plate format. The latter ratiometric optical measurements were performed on the CellOPTIQ platform at Clyde Biosciences (Newhouse, UK).
Effect of ORM-11372 (A: 0.1 µM; B: 0.3 µM) on human iPS cardiomyocyte action potentials. A left, Action potentials recorded in current-clamp at baseline (black trace), during exposure to ORM-11372 (red trace) and during wash off (grey trace). The dashed line denotes 0 mV. On the right is plotted, for the individual cardiomyocytes (n = 4), the action potential duration (APD) at 30, 50 and 90 % repolarisation in 0.1 µM ORM-11372 as the percentage of their baseline values. B, Action potentials and APDs recorded with voltage sensitive dye at baseline (black trace) and after 30 min treatment with either vehicle (0.1 % DMSO; blue trace and circles) or 0.3 µM ORM-11372 (red trace and squares). The APDs at 30, 50 and 90 % repolarisation […]
vehicle and ORM-11372 (*p<0.05 unpaired Student’s t-test).
(1 picture or pasted object on this page, not shown here)

[3] = molecular target: T1, noradrenaline transporter (Rattus norvegicus, UniProt Q9WTR4); assay: [^3H]noradrenaline uptake into rat hypothalamus synaptosomes; type: biochemical
T1 construct: [^3H]noradrenaline incorporated into rat hypothalamus synaptosomes; from tissue; host or cells: rat hypothalamus synaptosomes
T1 sequence (Q9WTR4 1-597): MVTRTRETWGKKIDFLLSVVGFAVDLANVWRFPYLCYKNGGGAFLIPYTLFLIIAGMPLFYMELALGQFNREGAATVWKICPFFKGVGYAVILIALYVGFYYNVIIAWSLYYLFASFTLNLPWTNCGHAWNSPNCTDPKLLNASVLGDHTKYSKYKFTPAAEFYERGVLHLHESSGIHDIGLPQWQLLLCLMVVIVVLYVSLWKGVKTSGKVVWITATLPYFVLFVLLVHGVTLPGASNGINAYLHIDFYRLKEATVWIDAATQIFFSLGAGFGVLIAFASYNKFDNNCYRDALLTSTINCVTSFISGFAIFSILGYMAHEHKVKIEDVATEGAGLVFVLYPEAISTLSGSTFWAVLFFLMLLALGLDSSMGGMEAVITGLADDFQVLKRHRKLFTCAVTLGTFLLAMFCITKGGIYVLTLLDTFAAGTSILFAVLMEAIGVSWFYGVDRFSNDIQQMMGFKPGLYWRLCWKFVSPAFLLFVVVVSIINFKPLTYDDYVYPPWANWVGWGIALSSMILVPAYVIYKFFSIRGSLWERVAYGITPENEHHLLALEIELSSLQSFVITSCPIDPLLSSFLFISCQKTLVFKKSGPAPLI
Experimental: Radioligand binding assays were performed at Eurofins Cerep SA (Celle L'Evescault, France), for testing the inhibition capacity of ORM‐11372 (at 10 μM with two replicates), in over 75 targets. These included receptors (e.g., human A1, A2A, and A3 adenosine receptors; α1 and α2 adrenoceptors; human β1–β3 adrenergic receptors; human D1, D2S, D3, D4.4, and D5 dopamine receptors; EGF and VEGF receptors; human M1–M5 muscarinic ACh receptors; human 5‐HT1A, 5‐HT2A, 5‐HT2B, 5‐HT2C, 5‐HT4e, 5‐HT5A, 5‐HT6, and 5‐HT7 receptors), ion channels (5‐HT3, Ca^2+, ATP‐dependent potassium channel [KATP], voltage‐dependent potassium channel [KV], small‐conductance calcium‐dependent potassium channel [SKCa], Na^+, and Cl^−), and transporters (adenosine, noradrenaline, dopamine, and 5‐HT). Follow‐up functional studies (with five concentrations and two replicates) were performed for 5‐HT2A receptors and noradrenaline transporter. Agonism and antagonism at h5‐HT2A receptors was explored in recombinant HEK 293 cells and intracellular calcium changes were detected using fluorimetry. Noradrenaline uptake was measured by carrying out scintillation counting of [^3H]noradrenaline incorporated into rat hypothalamus synaptosomes.

For Nc1cccc(-c2ccc(CNc3ccc(F)cc3)o2)c1 [ORM‐11372], the half relaxation time [1] was “unchanged; also recorded: did not affect”, the twitch tension ([1]; compared with vehicle) was “increased” and the “hiPSC‐CM APD” value [2] was “significant shortening”. The IC50 [3] was 1700 nM.
